The term IC50 denotes the concentration at which inhibition is half-maximal.

For 27 compounds, IC50 results are on record in patent US10577363B2, “Substituted piperidine compounds” (EPIZYME, INC., priority 2014, dated 2020).

SMILES strings stand for the structures.

Experiment [1] deals with T1, SMYD3 (Homo sapiens (Human), UniProt Q9H7B4). The experiment can be described thus: SMYD3 biochemical assay (SPA, 3H-SAM methylation of MEKK2 protein substrate). The note with it: read-out: SMYD3 Biochem IC50 (μM)*. The essentials:
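Methylation of N-terminally GST-tagged MEKK2 by untagged full-length human SMYD3, using 3H-SAM, in pH 8.0 Tris buffer with TCEP, BSG and Tween 20; enzyme and compound sat 30 min at room temperature before substrate addition. Stopped with 100 uM (final) cold SAM; incorporation read by scintillation proximity as dpm/cpm.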

The target in experiment [2] is T1, SMYD3. The experiment can be described thus: SMYD3 cell assay (Trimethyl-MEKK2 In-Cell Western in 293T/17 cells). The format is cell-based. The essentials:
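In-Cell Western readout: methanol-fixed cells stained for trimethyl-MEKK2 and flag tag, ratio per well normalized to DMSO and background controls.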

Setting [3] is: 293T/17 cells, read-out: SMYD3 Cell IC50 (μM)*.

T1 sequence (Q9H7B4 whole entry): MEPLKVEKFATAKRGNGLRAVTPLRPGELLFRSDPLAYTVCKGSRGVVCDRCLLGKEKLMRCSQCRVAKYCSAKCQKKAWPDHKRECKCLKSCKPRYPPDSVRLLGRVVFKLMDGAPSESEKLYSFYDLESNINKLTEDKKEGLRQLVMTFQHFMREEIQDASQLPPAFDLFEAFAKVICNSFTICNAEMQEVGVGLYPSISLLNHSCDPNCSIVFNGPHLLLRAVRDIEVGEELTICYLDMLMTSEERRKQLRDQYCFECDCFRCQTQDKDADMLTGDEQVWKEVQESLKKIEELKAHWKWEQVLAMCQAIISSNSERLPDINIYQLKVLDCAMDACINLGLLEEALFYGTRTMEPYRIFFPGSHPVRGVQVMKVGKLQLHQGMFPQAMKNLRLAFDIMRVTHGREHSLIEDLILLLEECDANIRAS

Consider `C[C@@H]1C[C@H](NC(=O)c2cc(C3CC3)on2)CCN1C(=O)c1cccc(C(C)(C)N)c1` [compound 365, N-((2R,4R)-1-(3-(2-aminopropan-2-yl)benzoyl)-2-methylpiperidin-4-yl)-5-cyclopropylisoxazole-3-carboxamide], for which the IC50 is 0.454 µM at SMYD3 [1] and 3.88 µM at SMYD3 [2] (setting [3]).

With `C[C@H]1C[C@@H](NC(=O)c2cc(C3CC3)on2)CCN1C(=O)c1cccc(C(C)(C)N)c1` [compound 367, N-((2S,4S)-1-(3-(2-aminopropan-2-yl)benzoyl)-2-methylpiperidin-4-yl)-5-cyclopropylisoxazole-3-carboxamide], the results for the IC50 on SMYD3 [1] and on SMYD3 [2] (setting [3]) were 4.29 µM and 30.6 µM, respectively.

Turning to `C[C@@H]1C[C@H](NC(=O)c2cc(C3CC3)on2)CCN1C(=O)c1ccc(C(C)(C)N)cc1` [compound 368, N-((2R,4R)-1-(4-(2-aminopropan-2-yl)benzoyl)-2-methylpiperidin-4-yl)-5-cyclopropylisoxazole-3-carboxamide], the 50% inhibitory concentration (IC50) on SMYD3 [1] worked out at 0.122 µM; on SMYD3 [2] (setting [3]) it was 1.04 µM.

On to `C[C@H]1C[C@@H](NC(=O)c2cc(C3CC3)on2)CCN1C(=O)c1ccc(C(C)(C)N)cc1` [compound 370, N-((2S,4S)-1-(4-(2-aminopropan-2-yl)benzoyl)-2-methylpiperidin-4-yl)-5-cyclopropylisoxazole-3-carboxamide], for which the values for the IC50 at SMYD3 [1] and at SMYD3 [2] (setting [3]) were 4.39 µM and over 40 µM, respectively.

As for `C[C@H]1C[C@@H](NC(=O)c2cc(C3CC3)on2)CCN1C(=O)C1CCCC(CN)C1` (stereo partly drawn) [compound 373, N-((2S,4S)-1-(3-(aminomethyl)cyclohexane-1-carbonyl)-2-methylpiperidin-4-yl)-5-cyclopropylisoxazole-3-carboxamide], the IC50 on SMYD3 [1] came out at 2.47 µM; at SMYD3 [2] (setting [3]), 29.8 µM.

Regarding `CC(=O)Nc1ccc(S(=O)(=O)N2CC[C@@H](NC(=O)c3cc(C4CC4)on3)C[C@@H]2C)cc1` [compound 377, N-((2S,4R)-1-((4-acetamidophenyl)sulfonyl)-2-methylpiperidin-4-yl)-5-cyclopropylisoxazole-3-carboxamide], the values for the IC50 at SMYD3 [1] and on SMYD3 [2] (setting [3]) were over 10 µM and 27.6 µM, respectively.

Regarding `CC(=O)Nc1ccc(S(=O)(=O)N2CC[C@H](NC(=O)c3cc(C4CC4)on3)C[C@@H]2C)cc1` [compound 378, N-((2S,4S)-1-((4-acetamidophenyl)sulfonyl)-2-methylpiperidin-4-yl)-5-cyclopropylisoxazole-3-carboxamide], the IC50 on SMYD3 [1] was 0.577 µM; on SMYD3 [2] (setting [3]), 2.74 µM.

For the compound `CC(C)CN(C)c1ccc(S(=O)(=O)N2CC[C@H](NC(=O)c3cc(C4CC4)on3)C[C@@H]2C)cn1` [compound 381, 5-cyclopropyl-N-((2S,4S)-1-((6-(isobutyl(methyl)amino)pyridin-3-yl)sulfonyl)-2-methylpiperidin-4-yl)isoxazole-3-carboxamide], the IC50 at SMYD3 [1] was over 10 µM; at SMYD3 [2] (setting [3]), over 40 µM.

Regarding `C[C@H]1CN(S(=O)(=O)CCCN)CC[C@@H]1NC(=O)c1cc(C2CC2)on1` [compound 385, N-((3S,4S)-1-((3-aminopropyl)sulfonyl)-3-methylpiperidin-4-yl)-5-cyclopropylisoxazole-3-carboxamide], the 50% inhibitory concentration (IC50) turned out to be 0.0882 µM on SMYD3 [1] and 1.23 µM against SMYD3 [2].

For the compound `C[C@@H]1CN(S(=O)(=O)CCCN)CC[C@@H]1NC(=O)c1cc(C2CC2)on1` [compound 387, N-((3R,4S)-1-((3-aminopropyl)sulfonyl)-3-methylpiperidin-4-yl)-5-cyclopropylisoxazole-3-carboxamide], the values for the IC50 at SMYD3 [1] and at SMYD3 [2] were 0.07 µM and 0.788 µM, respectively.

Take `NCCCS(=O)(=O)N1CC[C@@H](NC(=O)c2cc(C3CC3)on2)C[C@H]1Cc1ccccc1` [compound 390, N-((2R,4R)-1-((3-aminopropyl)sulfonyl)-2-benzylpiperidin-4-yl)-5-cyclopropylisoxazole-3-carboxamide]: the concentration for half-maximal inhibition (IC50) on SMYD3 [1] was found to be 0.464 µM; at SMYD3 [2] (setting [3]), 2.97 µM.

As for `C[C@H]1C[C@@H](NC(=O)c2cc(C3CC3)on2)CCN1C(=O)CC1(CN)CCCCC1` [compound 391, N-((2S,4S)-1-(2-(1-(aminomethyl)cyclohexyl)acetyl)-2-methylpiperidin-4-yl)-5-cyclopropylisoxazole-3-carboxamide], the half-inhibitory concentration (IC50) on SMYD3 [1] is 5.72 µM; on SMYD3 [2] (setting [3]), over 10 µM.

`NCCS(=O)(=O)N1[C@@H]2CC[C@H]1C[C@H](NC(=O)c1cc(C3CC3)on1)C2` [compound 395, N-((1R,3s,5S)-8-((2-aminoethyl)sulfonyl)-8-azabicyclo[3.2.1]octan-3-yl)-5-cyclopropylisoxazole-3-carboxamide]: the figures for the half-inhibitory concentration (IC50) at SMYD3 [1] and at SMYD3 [2] (setting [3]) were 0.611 µM and 3.16 µM, respectively.

Regarding `NCCS(=O)(=O)N1[C@@H]2CC[C@H]1C[C@@H](NC(=O)c1cc(C3CC3)on1)C2` [compound 396, N-((1R,3r,5S)-8-((2-aminoethyl)sulfonyl)-8-azabicyclo[3.2.1]octan-3-yl)-5-cyclopropylisoxazole-3-carboxamide], the values for the IC50 at SMYD3 [1] and on SMYD3 [2] (setting [3]) were 0.0417 µM and 0.375 µM, respectively.

As to `CC(=O)Nc1ccc(S(=O)(=O)N2CC[C@H](NC(=O)c3cc(C4CC4)on3)C[C@H]2C)cc1` [compound 397, N-((2R,4S)-1-((4-acetamidophenyl)sulfonyl)-2-methylpiperidin-4-yl)-5-cyclopropylisoxazole-3-carboxamide], the IC50 on SMYD3 [1] and at SMYD3 [2] (setting [3]) was over 10 µM each time.

As for `C[C@H]1C[C@@H](NC(=O)c2cc(C3CC3)on2)CCN1S(=O)(=O)c1cccc(C#N)c1` [compound 398, N-((2S,4S)-1-((3-cyanophenyl)sulfonyl)-2-methylpiperidin-4-yl)-5-cyclopropylisoxazole-3-carboxamide], the IC50 on SMYD3 [1] is 0.212 µM; at SMYD3 [2] (setting [3]), 1.21 µM.

For `O=C(N[C@@H]1C[C@H]2CC[C@@H](C1)N2S(=O)(=O)c1ccccc1)c1cc(C2CC2)on1` [compound 399, 5-cyclopropyl-N-((1R,3s,5S)-8-(phenylsulfonyl)-8-azabicyclo[3.2.1]octan-3-yl)isoxazole-3-carboxamide], the IC50 worked out at 0.833 µM on SMYD3 [1] and 2.87 µM at SMYD3 [2] (setting [3]).

As to `O=C(N[C@H]1C[C@H]2CC[C@@H](C1)N2S(=O)(=O)c1ccccc1)c1cc(C2CC2)on1` [compound 400, 5-cyclopropyl-N-((1R,3r,5S)-8-(phenylsulfonyl)-8-azabicyclo[3.2.1]octan-3-yl)isoxazole-3-carboxamide], the IC50 at SMYD3 [1] was 4.13 µM; at SMYD3 [2] (setting [3]) it was over 10 µM.

With `O=C(NC1CC2CCCC(C1)N2S(=O)(=O)c1ccccc1)c1cc(C2CC2)on1` (stereo not drawn) [compound 401, 5-cyclopropyl-N-(9-(phenylsulfonyl)-9-azabicyclo[3.3.1]nonan-3-yl)isoxazole-3-carboxamide], the IC50 at SMYD3 [1] turned out to be 0.793 µM; at SMYD3 [2] (setting [3]), 2.95 µM.

In the case of `CC(=O)Nc1ccc(S(=O)(=O)N2C3CCCC2CC(NC(=O)c2cc(C4CC4)on2)C3)cc1` (stereo not drawn) [compound 402, N-(9-((4-acetamidophenyl)sulfonyl)-9-azabicyclo[3.3.1]nonan-3-yl)-5-cyclopropylisoxazole-3-carboxamide], the IC50 on SMYD3 [1] was 4.92 µM; at SMYD3 [2] (setting [3]), over 10 µM.

`CC(=O)Nc1ccc(S(=O)(=O)N2[C@@H]3CC[C@H]2C[C@@H](NC(=O)c2cc(C4CC4)on2)C3)cc1` [compound 403, N-((1R,3r,5S)-8-((4-acetamidophenyl)sulfonyl)-8-azabicyclo[3.2.1]octan-3-yl)-5-cyclopropylisoxazole-3-carboxamide]: the results for the IC50 at SMYD3 [1] and at SMYD3 [2] (setting [3]) were 10 µM and over 10 µM, respectively.

`O=C(N[C@@H]1C[C@H]2CC[C@@H](C1)N2S(=O)(=O)c1ccc2[nH]c(=O)oc2c1)c1cc(C2CC2)on1` [compound 404, 5-cyclopropyl-N-((1R,3s,5S)-8-((2-oxo-2,3-dihydrobenzo[d]oxazol-6-yl)sulfonyl)-8-azabicyclo[3.2.1]octan-3-yl)isoxazole-3-carboxamide]: the IC50 on SMYD3 [1] was found to be 1.4 µM; on SMYD3 [2] (setting [3]), 2.92 µM.

Regarding `O=C(N[C@H]1C[C@H]2CC[C@@H](C1)N2S(=O)(=O)c1ccc2[nH]c(=O)oc2c1)c1cc(C2CC2)on1` [compound 405, 5-cyclopropyl-N-((1R,3r,5S)-8-((2-oxo-2,3-dihydrobenzo[d]oxazol-6-yl)sulfonyl)-8-azabicyclo[3.2.1]octan-3-yl)isoxazole-3-carboxamide], the results for the IC50 at SMYD3 [1] and on SMYD3 [2] (setting [3]) were 9.39 µM and over 10 µM, respectively.

As for `O=C(N[C@@H]1CCN(S(=O)(=O)CCN2CCCC2)[C@H](Cc2ccccc2)C1)c1cc(C2CC2)on1` [compound 407, N-((2R,4R)-2-benzyl-1-((2-(pyrrolidin-1-yl)ethyl)sulfonyl)piperidin-4-yl)-5-cyclopropylisoxazole-3-carboxamide], the IC50 on SMYD3 [1] is 3.81 µM; at SMYD3 [2] (setting [3]), over 10 µM.

Consider `O=C(NC1CC2CCCC(C1)N2S(=O)(=O)CCCN1CCOCC1)c1cc(C2CC2)on1` (stereo not drawn) [compound 410, 5-cyclopropyl-N-(9-((3-morpholinopropyl)sulfonyl)-9-azabicyclo[3.3.1]nonan-3-yl)isoxazole-3-carboxamide], for which the IC50 was 6.32 µM at SMYD3 [1] and over 10 µM at SMYD3 [2] (setting [3]).

As for `COCCN(C)c1ccc(S(=O)(=O)N2CC[C@H](NC(=O)c3cc(C4CC4)on3)C[C@@H]2C)cn1` [compound 412, 5-cyclopropyl-N-((2S,4S)-1-((6-((2-methoxyethyl)(methyl)amino)pyridin-3-yl)sulfonyl)-2-methylpiperidin-4-yl)isoxazole-3-carboxamide], the values for the IC50 on SMYD3 [1] and on SMYD3 [2] (setting [3]) were 2.12 µM and 8.22 µM, respectively.

`COCCNc1ccc(S(=O)(=O)N2CC[C@H](NC(=O)c3cc(C4CC4)on3)C[C@@H]2C)cn1` [compound 413, 5-cyclopropyl-N-((2S,4S)-1-((6-((2-methoxyethyl)amino)pyridin-3-yl)sulfonyl)-2-methylpiperidin-4-yl)isoxazole-3-carboxamide]: the values for the IC50 at SMYD3 [1] and on SMYD3 [2] (setting [3]) were 1.48 µM and 4.51 µM, respectively.
